Experimental data as given in patent US11319303B2 (WIGEN BIOMEDICINE TECHNOLOGY (SHANGHAI) CO., LTD., priority 2017, dated 2022).

target: LC3B (Homo sapiens, UniProt Q9GZQ8); test: Fluorescence Polarization (FP) Assay: displacement of FITC-labeled peptide from GST-LC3B; format: binding; conditions: not given
Experimental: The compounds of the present invention for regulating the autophagy-related protein LC3B were tested by Fluorescence Polarization (FP) Assay.
Fluorescence Polarization (FP) Assay Test

SMILES	IC50
CN1C(=O)C(=CNCCN2CCN(CCO)CC2)C(=O)N(C)C1=O [Compound 10, 5-(((2-(4-(2-hydroxyethyl)piperazin-1-yl)ethyl)amino)methylene)-1,3-dimethylpyrimidine-2,4,6(1H,3H,5H)-trione]	100 to 1000 µM

same assay, conditions: Fluorescence Polarization assay; GST-LC3B 180 nM, FITC-labeled peptide 18 nM, 25° C.; read-out: IC50

SMILES	IC50
CC1(C)OC(=O)C(=CNCCN2CCN(CCO)CC2)C(=O)O1 [Compound 1, 5-(((2-(4-(2-hydroxyethyl)piperazin-1-yl)ethyl)amino)methylene)-2,2-dimethyl-1,3-dioxane-4,6-dione]	100 to 1000 µM
NC=C1C(=O)CC(c2ccccc2)CC1=O (stereo not drawn) [Compound 2, 2-(aminomethylene)-5-phenylcyclohexane-1,3-dione]	3 to 15 µM
CSC=C1C(=O)CC(c2ccccc2)CC1=O (stereo not drawn) [Compound 4A, 2-((methylthio)methylene)-5-phenylcyclohexane-1,3-dione]	3 to 15 µM
O=C1CC(c2ccccc2)CC(=O)C1=CNc1cccnc1 (stereo not drawn) [Compound 7, 5-phenyl-2-((pyridin-3-ylamino)methylene) cyclohexane-1,3-dione]	3 to 15 µM
O=C1CC(c2ccccc2)CC(=O)C1=CNCCN1CCN(CCO)CC1 (stereo not drawn) [Compound 8, 2-(((2-(4-(2-hydroxyethyl)piperazin-1-yl)ethyl)amino)methylene)-5-phenylcyclohexane-1,3-dione]	< 3 µM
O=C1C(=CNCCN2CCN(CCO)CC2)C(=O)c2ccccc21 [Compound 9, 2-(((2-(4-(2-hydroxyethyl)piperazin-1-yl)ethyl)amino)methylene)-1H-indene-1,3(2H)-dione]	100 to 1000 µM
O=C1CCCC(=O)C1=CNCCN1CCN(CCO)CC1 [Compound 11, 2-(((2-(4-(2-hydroxyethyl)piperazin-1-yl)ethyl)amino)methylene) cyclohexane-1,3-dione]	100 to 1000 µM
O=C1COCC(=O)C1=CNCCN1CCN(CCO)CC1 [Compound 12, 4-(((2-(4-(2-hydroxyethyl)piperazin-1-yl)ethyl)amino)methylene)-2H-pyran-3,5(4H,6H)-dione]	100 to 1000 µM
CC1CC(=O)C(=CNCCN2CCN(CCO)CC2)C(=O)C1 (stereo not drawn) [Compound 14, 2-(((2-(4-(2-hydroxyethyl)piperazin-1-yl)ethyl)amino)methylene)-5-methylcyclohexane-1,3-dione]	100 to 1000 µM
COc1cc(OC)c2c(c1Cl)O[C@@]1(C(=O)/C(=C\NCCN3CCN(CCO)CC3)C(=O)C[C@H]1C)C2=O [Compound 15, (2R,6′R)-7-chloro-3′-(((2-(4-(2-hydroxyethyl)piperazin-1-yl)ethyl)amino)methylene)-4,6-dimethoxy-6′-methyl-3H-spiro[benzofuran-2,1′-cyclohexane]-2′,3,4′-trione]	3 to 15 µM
O=C1CC(c2ccnc3[nH]ccc23)CC(=O)C1=CNCCN1CCN(CCO)CC1 (stereo not drawn) [Compound 17, 2-(((2-(4-(2-hydroxyethyl)piperazin-1-yl)ethyl)amino)methylene)-5-(1H-pyrrolo[2,3-b]pyridin-4-yl)cyclohexane-1,3-dione]	3 to 15 µM
O=C1CC(c2c[nH]c3ncccc23)CC(=O)C1=CNCCN1CCN(CCO)CC1 (stereo not drawn) [Compound 18, 2-(((2-(4-(2-hydroxyethyl)piperazin-1-yl)ethyl)amino)methylene)-5-(1H-pyrrolo[2,3-b]pyridin-3-yl)cyclohexane-1,3-dione]	3 to 15 µM
COCCn1ccc2c(C3CC(=O)C(=CNCCN4CCN(CCO)CC4)C(=O)C3)ccnc21 (stereo not drawn) [Compound 19, 2-(((2-(4-(2-hydroxyethyl)piperazin-1-yl)ethyl)amino)methylene)-5-(1-(2-methoxyethyl)-1H-pyrrolo[2,3-b]pyridin-4-yl)cyclohexane-1,3-dione]	15 to 100 µM
O=C1CC(c2cnc3c(ccc4cccnc43)c2)CC(=O)C1=CNCCN1CCN(CCO)CC1 (stereo not drawn) [Compound 20, 2-(((2-(4-(2-hydroxyethyl)piperazin-1-yl)ethyl)amino)methylene)-5-(1,10-phenanthrolin-3-yl)cyclohexane-1,3-dione]	100 to 1000 µM
O=C1CC(c2ccc(Sc3ccccc3)cc2)CC(=O)C1=CNCCN1CCN(CCO)CC1 (stereo not drawn) [Compound 21, 2-(((2-(4-(2-hydroxyethyl)piperazin-1-yl)ethyl)amino)methylene)-5-(4-(phenylthio)phenyl) cyclohexane-1,3-dione]	15 to 100 µM
Cn1nnc(-c2ccc(C3CC(=O)C(=CNCCN4CCN(CCO)CC4)C(=O)C3)cc2)n1 (stereo not drawn) [Compound 22, 2-(((2-(4-(2-hydroxyethyl)piperazin-1-yl)ethyl)amino)methylene)-5-(4-(2-methyl-2H-tetrazol-5-yl)phenyl) cyclohexane-1,3-dione]	100 to 1000 µM
COc1cc(C2CC2)c(C2CC(=O)C(=CNCCN3CCN(CCO)CC3)C(=O)C2)cc1OC (stereo not drawn) [Compound 23, 5-(2-cyclopropyl-4,5-dimethoxyphenyl)-2-(((2-(4-(2-hydroxyethyl)piperazin-1-yl)ethyl)amino)methylene) cyclohexane-1,3-dione]	3 to 15 µM
O=C1CC(c2c[nH]c3cccc(F)c23)CC(=O)C1=CNCCN1CCN(CCO)CC1 (stereo not drawn) [Compound 24, 5-(4-fluoro-1H-indol-3-yl)-2-(((2-(4-(2-hydroxyethyl)piperazin-1-yl)ethyl)amino)methylene) cyclohexane-1,3-dione]	< 3 µM

SMILES	IC50
O=C1CC(c2cnc3c(N4CCOCC4)nccn23)CC(=O)C1=CNCCN1CCN(CCO)CC1 (stereo not drawn) [Compound 25, 2-(((2-(4-(2-hydroxyethyl)piperazin-1-yl)ethyl)amino)methylene)-5-(8-morpholinoimidazo [1,2-a]pyrazin-3-yl) cyclohexane-1,3-dione]	100 to 1000 µM
COc1cc2ncnc(C3CC(=O)C(=CNCCN4CCN(CCO)CC4)C(=O)C3)c2cc1OC (stereo not drawn) [Compound 26, 5-(6,7-dimethoxyquinazolin-4-yl)-2-(((2-(4-(2-hydroxyethyl)piperazin-1-yl)ethyl)amino)methylene) cyclohexane-1,3-dione]	15 to 100 µM
O=C1CC(c2ncnc3sccc23)CC(=O)C1=CNCCN1CCN(CCO)CC1 (stereo not drawn) [Compound 27, 2-(((2-(4-(2-hydroxyethyl)piperazin-1-yl)ethyl)amino)methylene)-5-(thieno[2,3-d]pyrimidin-4-yl)cyclohexane-1,3-dione]	15 to 100 µM
Cc1ccccc1C1CC(=O)C(=CNCCN2CCN(CCO)CC2)C(=O)C1 (stereo not drawn) [Compound 28, 2-(((2-(4-(2-hydroxyethyl)piperazin-1-yl)ethyl)amino)methylene)-5-(o-tolyl)cyclohexane-1,3-dione]	3 to 15 µM
CC1(c2ccccc2)CC(=O)C(=CNCCN2CCN(CCO)CC2)C(=O)C1 (stereo not drawn) [Compound 29, 2-(((2-(4-(2-hydroxyethyl)piperazin-1-yl)ethyl)amino)methylene)-5-methyl-5-phenylcyclohexane-1,3-dione]	100 to 1000 µM
CC1(C)O[C@@H]2[C@H](O1)[C@@H](C1CC(=O)C(=CNCCN3CCN(CCO)CC3)C(=O)C1)O[C@H]2n1cnc2c(N3CCOCC3)ncnc21 (stereo partly drawn) [Compound 30, 5-((3aR,4R,6R,6aR)-2,2-dimethyl-6-(6-morpholino-9H-purin-9-yl)tetrahydrofuro[3,4-d][1,3]dioxol-4-yl)-2-(((2-(4-(2-hydroxyethyl)piperazin-1-yl)ethyl)amino)methylene) cyclohexane-1,3-dione]	100 to 1000 µM
O=C1CC(COc2ccccc2)CC(=O)C1=CNCCN1CCN(CCO)CC1 (stereo not drawn) [Compound 31, 2-(((2-(4-(2-hydroxyethyl)piperazin-1-yl)ethyl)amino)methylene)-5-(phenoxymethyl) cyclohexane-1,3-dione]	3 to 15 µM
O=C1CC(COc2cccc(F)c2)CC(=O)C1=CNCCN1CCN(CCO)CC1 (stereo not drawn) [Compound 32, 5-((3-fluorophenoxy)methyl)-2-(((2-(4-(2-hydroxyethyl)piperazin-1-yl)ethyl)amino)methylene) cyclohexane-1,3-dione]	3 to 15 µM
O=C1CC(c2ccc(-c3ncnc4[nH]cnc34)cc2)CC(=O)C1=CNCCN1CCN(CCO)CC1 (stereo not drawn) [Compound 33, 5-(4-(9H-purin-6-yl)phenyl)-2-(((2-(4-(2-hydroxyethyl)piperazin-1-yl)ethyl)amino)methylene)cyclohexane-1,3-dione]	15 to 100 µM
COCCOCCOc1cccc(C2CC(=O)C(=CNCCN3CCN(CCO)CC3)C(=O)C2)c1 (stereo not drawn) [Compound 34, 2-(((2-(4-(2-hydroxyethyl)piperazin-yl)ethyl)amino)methylene)-5-(3-(2-(2-methoxyethoxy)ethoxy)phenyl)cyclohexane-1,3-dione]	< 3 µM
O=C1CC(c2ccc(N3CCOCC3)cc2)CC(=O)C1=CNCCN1CCN(CCO)CC1 (stereo not drawn) [Compound 35, 2-(((2-(4-(2-hydroxyethyl)piperazin-1-yl)ethyl)amino)methylene)-5-(4-morpholinophenyl) cyclohexane-1,3-dione]	15 to 100 µM
CN1CCN(c2ccc(C3CC(=O)C(=CNCCN4CCN(CCO)CC4)C(=O)C3)cc2)CC1 (stereo not drawn) [Compound 36, 2-(((2-(4-(2-hydroxyethyl)piperazin-1-yl)ethyl)amino)methylene)-5-(4-(4-methylpiperazin-1-yl)phenyl) cyclohexane-1,3-dione]	100 to 1000 µM
O=C1CC(c2cccs2)CC(=O)C1=CNCCN1CCN(CCO)CC1 (stereo not drawn) [Compound 37, 2-(((2-(4-(2-hydroxyethyl)piperazin-1-yl)ethyl)amino)methylene)-5-(thiophen-2-yl) cyclohexane-1,3-dione]	< 3 µM
O=C1CC(c2c[nH]c3ccccc23)CC(=O)C1=CNCCN1CCN(CCO)CC1 (stereo not drawn) [Compound 39, 2-(((2-(4-(2-hydroxyethyl)piperazin-1-yl)ethyl)amino)methylene)-5-(1H-indol-3-yl) cyclohexane-1,3-dione]	< 3 µM
O=C1CC(c2ccc(O)cc2)CC(=O)C1=CNCCN1CCN(CCO)CC1 (stereo not drawn) [Compound 40, 2-(((2-(4-(2-hydroxyethyl)piperazin-1-yl)ethyl)amino)methylene)-5-(4-hydroxyphenyl) cyclohexane-1,3-dione]	< 3 µM
COCCOCCOc1ccccc1C1CC(=O)C(=CNCCN2CCN(CCO)CC2)C(=O)C1 (stereo not drawn) [Compound 41]	3 to 15 µM
COCCOc1ccccc1C1CC(=O)C(=CNCCN2CCN(CCO)CC2)C(=O)C1 (stereo not drawn) [Compound 42, 2-(((2-(4-(2-hydroxyethyl)piperazin-1-yl)ethyl)amino)methylene)-5-(2-(2-methoxyethoxy)phenyl) cyclohexane-1,3-dione]	3 to 15 µM
